{"source": "ChEMBL document CHEMBL5385876", "about": "“Discovery of unglycosylated indolocarbazoles as ROCK2 isoform-selective inhibitors for the treatment of breast cancer metastasis” (Eur J Med Chem, 2023)", "key": {"[1]": {"target": "Rho-associated protein kinase 2 (Homo sapiens, UniProt O75116)", "sequence (O75116 whole entry, looked up)": "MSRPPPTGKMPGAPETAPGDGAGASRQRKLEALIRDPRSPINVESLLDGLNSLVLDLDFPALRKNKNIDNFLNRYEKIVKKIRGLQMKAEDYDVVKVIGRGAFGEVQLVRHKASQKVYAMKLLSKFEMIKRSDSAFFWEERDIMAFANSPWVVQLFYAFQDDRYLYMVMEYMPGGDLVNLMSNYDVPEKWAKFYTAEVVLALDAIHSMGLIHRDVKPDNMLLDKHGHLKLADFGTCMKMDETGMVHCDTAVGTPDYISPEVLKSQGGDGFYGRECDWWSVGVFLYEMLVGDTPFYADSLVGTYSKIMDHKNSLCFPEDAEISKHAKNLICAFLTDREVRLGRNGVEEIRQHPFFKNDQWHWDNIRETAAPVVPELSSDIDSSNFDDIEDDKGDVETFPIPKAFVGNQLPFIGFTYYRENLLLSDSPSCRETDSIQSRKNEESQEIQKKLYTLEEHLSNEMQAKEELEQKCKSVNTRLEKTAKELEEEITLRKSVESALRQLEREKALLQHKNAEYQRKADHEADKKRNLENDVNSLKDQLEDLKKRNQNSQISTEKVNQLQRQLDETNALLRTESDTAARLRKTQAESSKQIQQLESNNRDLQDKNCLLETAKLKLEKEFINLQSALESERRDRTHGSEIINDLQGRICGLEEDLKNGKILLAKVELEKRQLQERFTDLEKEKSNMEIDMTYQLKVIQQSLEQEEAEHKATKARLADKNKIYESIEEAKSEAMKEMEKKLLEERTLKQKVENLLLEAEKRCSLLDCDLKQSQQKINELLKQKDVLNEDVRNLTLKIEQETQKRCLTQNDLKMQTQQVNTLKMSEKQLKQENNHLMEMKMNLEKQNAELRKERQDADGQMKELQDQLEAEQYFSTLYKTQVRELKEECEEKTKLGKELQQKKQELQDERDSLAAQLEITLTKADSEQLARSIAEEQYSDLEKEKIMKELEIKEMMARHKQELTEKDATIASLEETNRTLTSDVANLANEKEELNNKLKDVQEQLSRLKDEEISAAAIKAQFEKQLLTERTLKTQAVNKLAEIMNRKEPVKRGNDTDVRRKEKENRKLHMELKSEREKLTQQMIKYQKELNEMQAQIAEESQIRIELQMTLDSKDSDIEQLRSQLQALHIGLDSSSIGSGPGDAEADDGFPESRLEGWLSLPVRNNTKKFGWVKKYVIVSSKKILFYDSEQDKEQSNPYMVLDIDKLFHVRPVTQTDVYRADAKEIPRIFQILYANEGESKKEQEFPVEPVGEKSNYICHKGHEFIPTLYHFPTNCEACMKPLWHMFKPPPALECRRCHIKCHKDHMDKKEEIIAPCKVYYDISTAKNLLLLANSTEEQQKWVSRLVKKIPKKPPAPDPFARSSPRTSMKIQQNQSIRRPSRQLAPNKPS", "test": "Binding affinity to ROCK2 in human MDA-MB- 231 cells assessed as stabilization at 100 uM and 52 to 61 degreeC incubated for 5 mins by CETSA", "type": "cell-based"}, "[2]": {"target": "Serine/threonine-protein kinase PLK1 (Homo sapiens, UniProt P53350)", "sequence (P53350 whole entry)": "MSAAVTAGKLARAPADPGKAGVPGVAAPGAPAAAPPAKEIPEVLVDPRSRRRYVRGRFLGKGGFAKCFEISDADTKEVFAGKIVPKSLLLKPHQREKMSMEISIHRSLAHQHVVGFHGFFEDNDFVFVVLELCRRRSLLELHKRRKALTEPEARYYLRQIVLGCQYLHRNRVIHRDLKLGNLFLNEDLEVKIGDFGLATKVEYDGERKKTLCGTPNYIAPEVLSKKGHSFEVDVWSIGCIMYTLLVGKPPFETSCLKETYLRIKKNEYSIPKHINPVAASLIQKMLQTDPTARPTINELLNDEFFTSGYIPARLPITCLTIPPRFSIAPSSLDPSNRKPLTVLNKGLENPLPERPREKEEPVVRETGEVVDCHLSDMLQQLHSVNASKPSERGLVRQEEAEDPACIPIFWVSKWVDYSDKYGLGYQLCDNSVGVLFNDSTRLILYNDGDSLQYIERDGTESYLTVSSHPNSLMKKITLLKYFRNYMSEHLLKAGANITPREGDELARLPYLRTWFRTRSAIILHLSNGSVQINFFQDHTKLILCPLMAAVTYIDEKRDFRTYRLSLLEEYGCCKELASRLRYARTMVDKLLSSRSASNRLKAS", "test": "Inhibition of PLK1 (unknown origin)"}, "SK-OV-3": {"tested_on": "SK-OV-3", "test": "Inhibition of cell migration in human SK-OV-3 cells at 1.25 to 10 uM incubated for 48 hrs by scratch wound healing assay", "type": "functional, cell-based", "conditions": "dose 1.25-10 µM"}, "[3]": {"target": "Mitogen-activated protein kinase kinase kinase 5 (Homo sapiens, UniProt Q99683)", "test": "Inhibition of ASK1 (unknown origin)"}, "MDA-MB-231 [4]": {"tested_on": "MDA-MB-231", "test": "Inhibition of cell invasion in human MDA-MB-231 cells incubated for 48 hrs by crystal violet staining based transwell assay", "type": "functional", "conditions": "dose 1.25-10 µM"}, "[5]": {"test": "Clearance in ICR mouse at 15 mg/kg, iv administered as single dose and measured for 8 hrs by LC-MS/MS analysis", "type": "ADME, organism-based", "conditions": "in vivo"}, "MDA-MB-231 [6]": {"tested_on": "MDA-MB-231", "test": "Upregulation of phosphorylated STAT5A protein expression in human MDA-MB-231 cells at 0.5 uM incubated for 24 hrs by Western blot analysis", "type": "functional, cell-based"}, "[7]": {"target": "Signal transducer and activator of transcription 3 (Homo sapiens) (UniProt P40763)", "sequence (P40763 whole entry)": "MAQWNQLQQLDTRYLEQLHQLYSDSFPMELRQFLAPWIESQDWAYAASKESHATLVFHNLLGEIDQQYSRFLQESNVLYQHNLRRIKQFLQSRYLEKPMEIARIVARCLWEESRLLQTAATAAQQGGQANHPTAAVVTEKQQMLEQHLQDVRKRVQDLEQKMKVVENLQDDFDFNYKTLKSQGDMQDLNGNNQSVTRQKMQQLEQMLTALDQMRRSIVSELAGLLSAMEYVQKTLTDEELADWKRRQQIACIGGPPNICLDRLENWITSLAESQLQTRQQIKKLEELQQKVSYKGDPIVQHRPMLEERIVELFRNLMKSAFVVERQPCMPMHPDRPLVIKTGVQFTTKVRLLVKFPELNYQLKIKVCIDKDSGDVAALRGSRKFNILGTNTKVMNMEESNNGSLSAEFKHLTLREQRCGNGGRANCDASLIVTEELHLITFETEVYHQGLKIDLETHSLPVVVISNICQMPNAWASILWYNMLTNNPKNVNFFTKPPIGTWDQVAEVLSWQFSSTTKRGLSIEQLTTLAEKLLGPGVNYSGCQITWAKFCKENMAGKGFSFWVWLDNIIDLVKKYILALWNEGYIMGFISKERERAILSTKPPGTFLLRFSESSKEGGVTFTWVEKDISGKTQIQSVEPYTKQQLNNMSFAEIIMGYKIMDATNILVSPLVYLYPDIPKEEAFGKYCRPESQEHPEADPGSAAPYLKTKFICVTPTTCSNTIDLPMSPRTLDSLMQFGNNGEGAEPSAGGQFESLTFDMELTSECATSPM", "test": "Inhibition of STAT3 activation in human MDA-MB-231 cells assessed as reduction in phosphorylated STAT3 nuclear translocation at 5 uM incubated for 24 hrs by immunofluorescence analysis", "type": "cell-based"}, "MDA-MB-231 [8]": {"tested_on": "MDA-MB-231", "test": "Upregulation of phosphorylated STAT6 protein expression in human MDA-MB-231 cells at 0.5 uM incubated for 24 hrs by Western blot analysis", "type": "functional, cell-based"}, "[9]": {"test": "Toxicity in BALB/c nude mouse xenografted with human MDA-MB-231 cells harboring Luc-mcherry assessed as reduction in body weight at 15 mg/kg, iv administered once a day for 45 days", "type": "organism-based", "conditions": "in vivo, 1080 h, time 45 day"}, "MDA-MB-231 [10]": {"tested_on": "MDA-MB-231", "test": "Antimetastatic activity against human MDA-MB-231 cells harboring Luc-mcherry xenografted in BALB/c nude mouse at 15 mg/kg, iv administered once a day for 45 days and measured on day 19,30 and 45 by bioluminescence imaging", "type": "functional, organism-based", "conditions": "time 45.0 day"}, "[11]": {"test": "Drug uptake in lung of ICR mouse at 15 mg/kg, iv administered as single dose and measured after 0.25 to 4 hrs by LC-MS/MS analysis", "type": "ADME, organism-based", "conditions": "in vivo, time 0.25-4 hrs"}, "[12]": {"target": "Rho-associated protein kinase 1 (Homo sapiens, UniProt Q13464)", "test": "Inhibition of ROCK1 (unknown origin)"}, "[13]": {"target": "Maternal embryonic leucine zipper kinase (Homo sapiens) (UniProt Q14680)", "sequence (Q14680 whole entry, looked up)": "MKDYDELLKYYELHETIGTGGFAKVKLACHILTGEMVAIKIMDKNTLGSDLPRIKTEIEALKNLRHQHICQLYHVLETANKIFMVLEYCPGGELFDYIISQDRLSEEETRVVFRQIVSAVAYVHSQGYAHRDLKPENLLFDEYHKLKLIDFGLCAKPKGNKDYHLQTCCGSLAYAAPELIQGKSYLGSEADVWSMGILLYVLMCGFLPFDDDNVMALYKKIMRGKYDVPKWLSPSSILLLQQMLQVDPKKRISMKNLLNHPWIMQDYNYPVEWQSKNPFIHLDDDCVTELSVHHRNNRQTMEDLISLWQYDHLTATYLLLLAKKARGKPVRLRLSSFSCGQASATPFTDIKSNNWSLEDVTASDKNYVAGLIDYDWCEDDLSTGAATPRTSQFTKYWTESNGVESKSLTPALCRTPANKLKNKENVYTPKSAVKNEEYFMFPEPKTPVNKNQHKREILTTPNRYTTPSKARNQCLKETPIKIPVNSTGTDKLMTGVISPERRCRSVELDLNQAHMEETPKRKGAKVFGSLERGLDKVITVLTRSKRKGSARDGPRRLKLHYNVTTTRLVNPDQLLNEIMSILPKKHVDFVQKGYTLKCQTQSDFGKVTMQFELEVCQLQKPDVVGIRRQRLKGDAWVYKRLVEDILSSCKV", "test": "Inhibition of human recombinant MELK at 125 nM"}, "[14]": {"target": "Signal transducer and activator of transcription 3 (Homo sapiens) (UniProt P40763)", "test": "Inhibition of STAT3 transcriptional activity in human MDA-MB-231 cells assessed as reduction in MMP2 mRNA level at 5 uM incubated for 24 hrs by qRT-PCR analysis", "type": "cell-based"}, "MDA-MB-231 [15]": {"tested_on": "MDA-MB-231", "test": "Downregulation of phosphorylated STAT1 protein expression in human MDA-MB-231 cells at 0.5 uM incubated for 24 hrs by Western blot analysis", "type": "functional, cell-based"}, "[16]": {"tested_on": "Rho-associated protein kinase 2 (Homo sapiens), O75116 [E140A]", "test": "Binding affinity to N-terminal His10-StrepII tagged human ROCK2 E140A mutant catalytic domain (1 to 553 residues) expressed in Sf9 insect cells assessed as change in melting temperature at 50 uM by SYPRO orange dye based thermal shift assay"}, "[17]": {"target": "Serine/threonine-protein kinase pim-1 (Homo sapiens, UniProt P11309)", "sequence (P11309 whole entry)": "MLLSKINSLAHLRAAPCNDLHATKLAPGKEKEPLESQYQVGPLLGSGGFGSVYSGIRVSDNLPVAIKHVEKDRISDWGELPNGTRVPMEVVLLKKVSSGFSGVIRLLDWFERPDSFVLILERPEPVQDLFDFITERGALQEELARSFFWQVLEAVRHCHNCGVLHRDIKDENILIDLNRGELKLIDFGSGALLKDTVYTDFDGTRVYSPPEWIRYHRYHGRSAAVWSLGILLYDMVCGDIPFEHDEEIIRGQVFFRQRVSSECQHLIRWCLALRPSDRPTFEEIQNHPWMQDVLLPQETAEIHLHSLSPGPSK", "test": "Inhibition of PIM1 (unknown origin)"}, "[18]": {"test": "Volume of distribution at steady state in ICR mouse at 15 mg/kg, iv administered as single dose and measured for 8 hrs by LC-MS/MS analysis", "type": "ADME, organism-based", "conditions": "in vivo, read-out: Vdss"}, "MDA-MB-231 [19]": {"tested_on": "MDA-MB-231", "test": "Downregulation of phosphorylated STAT2 protein expression in human MDA-MB-231 cells at 0.5 uM incubated for 24 hrs by Western blot analysis", "type": "functional, cell-based"}, "[20]": {"target": "Protein kinase C delta type (Homo sapiens, UniProt Q05655)", "test": "Inhibition of PKCdelta (unknown origin)"}, "[21]": {"target": "Misshapen-like kinase 1 (Homo sapiens) (UniProt Q8N4C8)", "sequence (Q8N4C8 whole entry, looked up)": "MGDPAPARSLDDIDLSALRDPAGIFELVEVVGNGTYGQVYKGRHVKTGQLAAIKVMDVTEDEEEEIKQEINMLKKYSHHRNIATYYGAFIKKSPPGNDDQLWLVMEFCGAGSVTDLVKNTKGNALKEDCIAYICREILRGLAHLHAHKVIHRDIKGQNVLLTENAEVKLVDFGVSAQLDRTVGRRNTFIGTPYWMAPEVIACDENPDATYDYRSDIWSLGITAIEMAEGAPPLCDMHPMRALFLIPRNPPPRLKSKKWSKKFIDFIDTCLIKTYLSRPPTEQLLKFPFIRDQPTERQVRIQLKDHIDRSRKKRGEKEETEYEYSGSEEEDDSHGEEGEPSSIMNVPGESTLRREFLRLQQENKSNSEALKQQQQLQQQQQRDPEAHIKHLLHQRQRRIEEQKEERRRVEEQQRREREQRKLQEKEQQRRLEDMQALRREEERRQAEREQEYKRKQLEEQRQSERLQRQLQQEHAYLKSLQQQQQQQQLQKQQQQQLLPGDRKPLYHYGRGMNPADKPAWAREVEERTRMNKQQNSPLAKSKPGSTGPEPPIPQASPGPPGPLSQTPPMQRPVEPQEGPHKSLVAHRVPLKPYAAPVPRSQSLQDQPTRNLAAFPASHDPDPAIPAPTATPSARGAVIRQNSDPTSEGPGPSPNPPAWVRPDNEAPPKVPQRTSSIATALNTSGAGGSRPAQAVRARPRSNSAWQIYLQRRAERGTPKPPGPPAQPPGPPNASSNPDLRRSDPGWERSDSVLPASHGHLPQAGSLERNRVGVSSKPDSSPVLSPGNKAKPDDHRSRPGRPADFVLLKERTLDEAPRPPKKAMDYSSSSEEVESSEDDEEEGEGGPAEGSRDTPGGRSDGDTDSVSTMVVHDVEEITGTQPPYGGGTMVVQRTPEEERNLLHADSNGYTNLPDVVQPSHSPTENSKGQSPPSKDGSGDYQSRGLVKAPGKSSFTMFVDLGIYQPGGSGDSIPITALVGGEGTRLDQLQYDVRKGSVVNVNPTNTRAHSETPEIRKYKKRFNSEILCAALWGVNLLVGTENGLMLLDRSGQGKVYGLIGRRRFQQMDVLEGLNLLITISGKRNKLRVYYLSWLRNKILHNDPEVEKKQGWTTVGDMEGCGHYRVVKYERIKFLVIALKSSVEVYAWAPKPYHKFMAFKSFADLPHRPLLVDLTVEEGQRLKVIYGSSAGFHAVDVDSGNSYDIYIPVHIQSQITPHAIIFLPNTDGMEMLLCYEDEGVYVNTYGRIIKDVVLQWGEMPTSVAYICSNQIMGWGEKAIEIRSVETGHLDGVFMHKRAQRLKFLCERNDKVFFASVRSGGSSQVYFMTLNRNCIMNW", "test": "Inhibition of human recombinant MINK1 at 125 nM"}, "MDA-MB-231 [22]": {"tested_on": "MDA-MB-231", "test": "Inhibition of cell migration in human MDA-MB-231 cells incubated for 48 hrs by scratch wound healing assay", "type": "functional, cell-based", "conditions": "dose 1.25-10 µM"}, "[23]": {"test": "Volume of distribution at terminal state in ICR mouse at 15 mg/kg, iv administered as single dose and measured for 8 hrs by LC-MS/MS analysis", "type": "ADME, organism-based", "conditions": "in vivo, read-out: Vz"}, "[24]": {"test": "Selectivity index, ratio of IC50 for ROCK2 (unknown origin) to IC50 for N-terminal His10-StrepII tagged human ROCK2 catalytic domain (1 to 553 residues) expressed in Sf9 insect cells"}, "[25]": {"test": "AUC (0 to infinity) in ICR mouse at 15 mg/kg, iv administered as single dose and measured for 8 hrs by LC-MS/MS analysis", "type": "ADME, organism-based", "set-up": "time 8 hrs, dose 15 mg/kg, route iv", "conditions": "in vivo"}, "MDA-MB-231 [26]": {"tested_on": "MDA-MB-231", "test": "Antiproliferative activity against human MDA-MB-231 cells assessed as suppression of cell growth incubated for 72 hrs by SRB assay", "type": "functional, cell-based", "conditions": "MDA-MB-231, 72 h"}, "[27]": {"test": "Oral bioavailability in ICR mouse at 20 mg/kg administered as single dose and measured for 8 hrs by LC-MS/MS analysis", "type": "ADME, organism-based", "conditions": "in vivo"}, "[28]": {"tested_on": "Rho-associated protein kinase 2 (Homo sapiens), O75116 [M87A]", "sequence (O75116 whole entry M87A, the tested form may be a part)": "as the sequence (O75116 whole entry, looked up) above, with M87A counted along it", "test": "Binding affinity to N-terminal His10-StrepII tagged human ROCK2 M87A mutant catalytic domain (1 to 553 residues) expressed in Sf9 insect cells assessed as change in melting temperature at 50 uM by SYPRO orange dye based thermal shift assay"}, "[29]": {"test": "Half life in ICR mouse at 15 mg/kg, iv administered as single dose and measured for 8 hrs by LC-MS/MS analysis", "type": "ADME, organism-based", "conditions": "in vivo"}, "[30]": {"test": "Selectivity index, ratio of IC50 for PKCdelta (unknown origin) to IC50 for N-terminal His10-StrepII tagged human ROCK2 catalytic domain (1 to 553 residues) expressed in Sf9 insect cells"}, "[31]": {"test": "MRT (0 to t) in ICR mouse at 15 mg/kg, iv administered as single dose and measured for 8 hrs by LC-MS/MS analysis", "type": "ADME, organism-based", "conditions": "in vivo"}, "MDA-MB-231 [32]": {"tested_on": "MDA-MB-231", "test": "Inhibition of IL-6 stimulated phosphorylated STAT3 at Y705 residue expression in human MDA-MB-231 cells at 5 uM incubated for 24 hrs by Western blot analysis", "type": "functional, cell-based"}, "[33]": {"test": "Cmax in ICR mouse at 15 mg/kg, iv administered as single dose and measured for 8 hrs by LC-MS/MS analysis", "type": "ADME, organism-based", "set-up": "time 8 hrs, dose 15 mg/kg, route iv", "conditions": "in vivo"}, "[34]": {"test": "MRT (0 to infinity) in ICR mouse at 15 mg/kg, iv administered as single dose and measured for 8 hrs by LC-MS/MS analysis", "type": "ADME, organism-based", "conditions": "in vivo"}, "[35]": {"target": "Signal transducer and activator of transcription 3 (Homo sapiens) (UniProt P40763)", "test": "Inhibition of STAT3 activation in human MDA-MB-231 cells assessed as reduction in STAT3 phosphorylation at Y705 residue at 1.25 to 10 uM incubated for 24 hrs by Western blot analysis", "type": "cell-based", "conditions": "dose 1.25-10 µM"}}, "note": "The source made the active and inactive calls. No cut-off for these calls is given here."}
{"molecule": "O=C1NCc2c1c1c3cc(O)ccc3[nH]c1c1[nH]c3ccccc3c21", "values": [{"measurement": "Activity", "setting": "[1]", "result": "Active"}, {"measurement": "IC50", "setting": "[2]", "result": "> 10", "unit": "µM"}, {"measurement": "inhibition", "setting": "SK-OV-3", "result": "Active"}, {"measurement": "IC50", "setting": "[3]", "result": 0.944, "unit": "µM"}, {"measurement": "inhibition", "setting": "MDA-MB-231 [4]", "result": "Dose-Dependent Effect"}, {"measurement": "clearance", "setting": "[5]", "result": 1.76, "unit": "L/h/kg"}, {"measurement": "Activity", "setting": "MDA-MB-231 [6]", "result": "Active"}, {"measurement": "inhibition", "setting": "[7]", "result": "Active"}, {"measurement": "Activity", "setting": "MDA-MB-231 [8]", "result": "Active"}, {"measurement": "Activity", "setting": "[9]", "result": "Non-Toxic"}, {"measurement": "Activity", "setting": "MDA-MB-231 [10]", "result": "Active"}, {"measurement": "Drug uptake", "setting": "[11]", "result": "Active"}, {"measurement": "IC50", "setting": "[12]", "result": 0.923, "unit": "µM"}, {"measurement": "inhibition", "setting": "[13]", "result": "Active"}, {"measurement": "inhibition", "setting": "[14]", "result": "Active"}, {"measurement": "Activity", "setting": "MDA-MB-231 [15]", "result": "Active"}, {"measurement": "Activity", "setting": "[16]", "result": "inactive"}, {"measurement": "IC50", "setting": "[17]", "result": 0.307, "unit": "µM"}, {"measurement": "Vd", "setting": "[18]", "result": 0.32, "unit": "L/kg"}, {"measurement": "Activity", "setting": "MDA-MB-231 [19]", "result": "Active"}, {"measurement": "IC50", "setting": "[20]", "result": 0.0607, "unit": "µM"}, {"measurement": "inhibition", "setting": "[21]", "result": "Active"}, {"measurement": "inhibition", "setting": "MDA-MB-231 [22]", "result": "Dose-Dependent Effect"}, {"measurement": "Vd", "setting": "[23]", "result": 4.87, "unit": "L/kg"}, {"measurement": "Ratio IC50", "setting": "[24]", "result": "> 100"}, {"measurement": "AUC(0-inf)", "setting": "[25]", "result": 6.25, "unit": "µg·h/mL"}, {"measurement": "IC50", "setting": "MDA-MB-231 [26]", "result": 7.19, "unit": "µM"}, {"measurement": "bioavailability", "setting": "[27]", "result": "< 1", "unit": "%"}, {"measurement": "Activity", "setting": "[28]", "result": "inactive"}, {"measurement": "half-life", "setting": "[29]", "result": 90.6, "unit": "min"}, {"measurement": "Ratio IC50", "setting": "[30]", "result": "> 10"}, {"measurement": "MRT last at 8 h", "setting": "[31]", "result": 10.8, "unit": "min"}, {"measurement": "inhibition", "setting": "MDA-MB-231 [32]", "result": "Active"}, {"measurement": "Cmax", "setting": "[33]", "result": 21.6, "unit": "µg/mL"}, {"measurement": "MRT inf", "setting": "[34]", "result": 10.8, "unit": "min"}, {"measurement": "inhibition", "setting": "[35]", "result": "Active"}]}
